From patent US6339104B1, “Therapeutic agent for primary biliary cirrhosis” (The City of Osaka, priority 1998, dated 2002)

Test system: patient with primary biliary cirrhosis (stage IV in Scheuer classification)
Assay: Clinical effect of oral L-alanine in a patient with terminal-stage primary biliary cirrhosis
Type: in vivo, human
Experimental: The clinical effect of L-alanine was examined in a patient with primary biliary cirrhosis. The patient was suffering from primary biliary cirrhosis in the terminal stages (stage IV in Scheuer classification). After their symptoms had appeared, 600 mg/day of ursodeoxycholic acid was orally administered as a therapeutic agent everyday. However, this treatment became ineffective and the results of biochemical tests also became worse. Under these conditions, 18 g/day of L-alanine was orally administered to the patient in three doses every day for two months. Before and after the administration of L-alanine, two weeks in total of the observation period was taken, and then eight weeks of the administration period was taken. The blood specimen was taken once a week to determine total serum bilirubin and transaminase (AST). By the administration of L-alanine, total serum bilirubin and transaminase were reduced. […] As the administration was finished, increase of both total serum bilirubin and transaminase was observed.

[1] = observation period after end of 18 g/day oral administration
[2] = patient, 18 g/day orally in three doses, eight weeks administration, weekly blood specimen

With `C[C@H](N)C(=O)O` [L-alanine] the “time of maximum effect after the start of the administration” value (18 g/day orally, effect on total serum bilirubin and transaminase, lasted in the course of the administration) was “two”, the “therapeutic effect on the terminal case of primary biliary cirrhosis (symptoms)” value (L-alanine 18 g/day orally, ursodeoxycholic acid 600 mg/day orally) was “excellent therapeutic effect” and the “total serum bilirubin after the administration was finished” value [1] was “increase”. The “transaminase after the administration was finished” value [1] was “increase”, the total serum bilirubin [2] was “reduced” and the “transaminase (AST)” value [2] was “reduced”.
